Data: patent US20250110133A1, “METHOD AND KIT FOR PREDICTING DRUG EFFICACY OF LUNG CANCER TREATMENT AND METHOD FOR TREATING LUNG CANCER” (National Health Research Institutes, priority 2023, published 2025)
pIC50: −log10 of the molar value. “Also recorded” adds a separate entry of the source. Read-outs that look alike come from different tables or passages of the source.

Experiments:
PC9 cells [1] = test: Colony formation assay for gefitinib sensitivity; type: cell-based, human; settings: 10-day treatment
Method: Data are presented as mean±standard error of mean, n=3. Differences between shLDOC1 and shCtrl at each indicated concentration are analyzed using Student's t test; * p<0.05 and ** p<0.01.

HCC827 cells [2] = settings: read-out: half-maximal inhibitory concentration (IC50)
Method: (§1) The HCC827 cell line is provided by Dr. Yi-Rong Chen from the Institute of Molecular and Genomic Medicine, National Health Research Institutes, Taiwan. […] PC9 and HCC827 cells are maintained in RPMI1640 (Cytiva). […] All cells are cultured in media containing 10% FBS (Gibco), 1% penicillin (Thermo Fisher, Waltham, MA, USA), and 1% streptomycin (Thermo Fisher); the cells are incubated at 37° C. in a humidified chamber with 5% CO2. […] The cells are checked for Mycoplasma (BioSmart, Seoul, Republic of Korea) upon thawing, and throughout the experimental period they consistently tested negative for Mycoplasma.
(§2) Cells are seeded at a density of 5×10^3 per well in a 96-well plate. […] An appropriate amount of DMSO is also added to the control cells. After 72 h of treatment, the cells are incubated with a solution of MTT (3-(4,5-dimethylthiazol-2-yl)-2,5-diphenyltetrazolium bromide) (Sigma-Aldrich) for 4 h at 37° C. Subsequently, the medium is aspirated, and 100 μL DMSO is added to solubilize the formazan. Colored formazan converted from MTT using viable cells is measured at 570 nm with a microplate reader (BioRad). Experiments are performed in triplicate. IC50 values are determined using the scientific and statistical software GraphPad Prism 10.0.0.

HCC827 cells [3] = test: cells; settings: Homo sapiens, HCC827, 72 h, read-out: half-maximal inhibitory concentration (IC50)
Method: as §1, §2

PC9 cells [4] = tested on: PC9 cells
Method: (§3) Cells were seeded in 96-well cell culture plates and treated the next day with the indicated concentrations of indicated EGFR-TKI. After 3 days, cell numbers were determined with MTT assay.
(§4) All cells are cultured in media containing 10% FBS (Gibco), 1% penicillin (Thermo Fisher, Waltham, MA, USA), and 1% streptomycin (Thermo Fisher); the cells are incubated at 37° C. in a humidified chamber with 5% CO2.
as §2

PC9 cells [5] = test: cells; settings: Homo sapiens, PC-9, 72 h, read-out: half-maximal inhibitory concentration (IC50)
Method: as §3, §4, §2

| Compound | colony formation under drug treatment (PC9 cells [1]; LDOC1-depleted (shLDOC1) PC9 cells) | colony formation under drug treatment (PC9 cells [1]; PC9-shCtrl cells) | pIC50 (HCC827 cells [2]) | pIC50 (HCC827 cells [3]) | IC50 / inhibitory effect in shLDOC1 cells compared with shCtrl cells (PC9 cells [4]) | pIC50 (PC9 cells [5]) |
| --- | --- | --- | --- | --- | --- | --- |
| COc1cc2ncnc(Nc3ccc(F)c(Cl)c3)c2cc1OCCCN1CCOCC1 [gefitinib] | increased the number of cell colonies; also recorded: survive and form colonies | no colonies |  |  |  |  |
| C=CC(=O)Nc1cc(Nc2nccc(-c3cn(C)c4ccccc34)n2)c(OC)cc1N(C)CCN(C)C [osimertinib] |  |  | 5.64 | 5.74 | almost the same inhibitory effect | 6.05 |
